In the NIST ThermoML archive (doi:10.1016/j.tca.2015.01.022):
“And” between values parts separate entries of the source, which are not always exact repeats. Equal values may be shown once.

Experiment: molar heat capacity at constant pressure
Details: 101.33 kPa, Small (less than 1 g) adiabatic calorimetry

CCCCCCCC[n+]1ccn(C)c1.F[B-](F)(F)F [1-methyl-3-octylimidazolium tetrafluoroborate]
molar heat capacity at constant pressure
Details	Crystal	Glass
5 K	1.51 J/K/mol	1.78 J/K/mol
5.07 K	–	1.855 J/K/mol
5.13 K	1.622 J/K/mol	–
5.35 K	–	2.152 J/K/mol
5.41 K	1.892 J/K/mol	–
5.63 K	–	2.475 J/K/mol
5.69 K	2.194 J/K/mol	–
5.92 K	–	2.835 J/K/mol
5.98 K	2.524 J/K/mol	–
6.24 K	–	3.263 J/K/mol
6.3 K	2.928 J/K/mol	–
6.6 K	–	3.776 J/K/mol
6.66 K	3.407 J/K/mol	–
6.96 K	–	4.337 J/K/mol
7.03 K	3.928 J/K/mol	–
7.33 K	–	4.94 J/K/mol
7.4 K	4.511 J/K/mol	–
7.7 K	–	5.576 J/K/mol
7.78 K	5.114 J/K/mol	–
8.08 K	–	6.258 J/K/mol
8.15 K	5.768 J/K/mol	–
8.46 K	–	6.988 J/K/mol
8.54 K	6.47 J/K/mol	–
8.84 K	–	7.752 J/K/mol
8.92 K	7.205 J/K/mol	–
9.23 K	–	8.549 J/K/mol
9.31 K	7.974 J/K/mol	–
9.61 K	–	9.38 J/K/mol
9.7 K	8.786 J/K/mol	–
10 K	9.42 J/K/mol	10.23 J/K/mol and 10.24 J/K/mol
10.1 K	9.617 J/K/mol	–
10.5 K	–	11.4 J/K/mol
10.6 K	10.74 J/K/mol	–
11.11 K	–	12.83 J/K/mol
11.21 K	12.14 J/K/mol	–
11.73 K	–	14.33 J/K/mol
11.82 K	13.61 J/K/mol	–
12.34 K	–	15.89 J/K/mol
12.44 K	15.14 J/K/mol	–
12.96 K	–	17.5 J/K/mol
13.07 K	16.72 J/K/mol	–
13.58 K	–	19.15 J/K/mol
13.69 K	18.35 J/K/mol	–
14.2 K	–	20.8 J/K/mol
14.32 K	20 J/K/mol	–
14.83 K	–	22.52 J/K/mol
14.96 K	21.77 J/K/mol	–
15 K	21.91 J/K/mol	23.07 J/K/mol
15.57 K	–	24.74 J/K/mol
15.71 K	23.92 J/K/mol	–
16.43 K	–	27.33 J/K/mol
16.57 K	26.44 J/K/mol	–
17.29 K	–	29.78 J/K/mol
17.43 K	28.91 J/K/mol	–
18.15 K	–	32.35 J/K/mol
18.3 K	31.39 J/K/mol	–
19.01 K	–	34.88 J/K/mol
19.17 K	33.9 J/K/mol	–
19.88 K	–	37.39 J/K/mol
20 K	36.32 J/K/mol	37.79 J/K/mol
20.05 K	36.43 J/K/mol	–
21.09 K	–	41.05 J/K/mol
21.26 K	40.04 J/K/mol	–
22.65 K	–	45.73 J/K/mol
22.82 K	44.72 J/K/mol	–
24.21 K	–	50.47 J/K/mol
24.39 K	49.42 J/K/mol	–
25 K	51.22 J/K/mol	52.78 J/K/mol
25.78 K	–	55.12 J/K/mol
25.97 K	54.13 J/K/mol	–
27.35 K	–	59.68 J/K/mol
27.55 K	58.67 J/K/mol	–
28.87 K	–	64.05 J/K/mol
29.08 K	63.06 J/K/mol	–
30 K	65.66 J/K/mol	67.29 J/K/mol
30.42 K	–	68.44 J/K/mol
30.66 K	67.49 J/K/mol	–
32.16 K	–	73.29 J/K/mol
32.42 K	72.33 J/K/mol	–
34.07 K	–	78.36 J/K/mol
34.34 K	77.4 J/K/mol	–
35 K	79.1 J/K/mol	80.71 J/K/mol
35.98 K	–	83.21 J/K/mol
36.27 K	82.31 J/K/mol	–
37.9 K	–	87.91 J/K/mol
38.19 K	87.1 J/K/mol	–
39.82 K	–	92.51 J/K/mol
40 K	91.48 J/K/mol	92.99 J/K/mol
40.12 K	91.75 J/K/mol	–
41.83 K	–	97.3 J/K/mol
42.14 K	96.59 J/K/mol	–
43.94 K	–	102.2 J/K/mol
44.27 K	101.5 J/K/mol	–
45 K	103.2 J/K/mol	104.6 J/K/mol
46.06 K	–	107 J/K/mol
46.4 K	106.3 J/K/mol	–
48.18 K	–	111.7 J/K/mol
48.53 K	111 J/K/mol	–
50 K	114.1 J/K/mol	115.6 J/K/mol
50.3 K	–	116.2 J/K/mol
50.66 K	115.5 J/K/mol	–
52.42 K	–	120.6 J/K/mol
52.79 K	119.8 J/K/mol	–
54.54 K	–	124.8 J/K/mol
54.93 K	124 J/K/mol	–
56.66 K	–	128.7 J/K/mol
57.07 K	128 J/K/mol	–
58.79 K	–	132.7 J/K/mol
59.21 K	131.9 J/K/mol	–
60 K	133.3 J/K/mol	135 J/K/mol
60.93 K	–	136.6 J/K/mol
61.36 K	135.7 J/K/mol	–
63.07 K	–	140.4 J/K/mol
63.51 K	139.5 J/K/mol	–
65.21 K	–	144.2 J/K/mol
65.66 K	143 J/K/mol	–
67.34 K	–	147.9 J/K/mol
67.81 K	146.6 J/K/mol	–
69.48 K	–	151.6 J/K/mol
69.96 K	150.1 J/K/mol	–
70 K	150.1 J/K/mol	152.5 J/K/mol
71.72 K	–	155.5 J/K/mol
72.22 K	153.7 J/K/mol	–
74.07 K	–	159.5 J/K/mol
74.59 K	157.4 J/K/mol	–
76.42 K	–	163.4 J/K/mol
76.96 K	161 J/K/mol	–
78.77 K	–	167.3 J/K/mol
79.33 K	164.5 J/K/mol	–
79.7 K	165.1 J/K/mol	–
80 K	165.4 J/K/mol	169.5 J/K/mol
80.09 K	165.7 J/K/mol	–
80.17 K	–	169.7 J/K/mol
81.13 K	–	171.2 J/K/mol
81.61 K	167.8 J/K/mol	–
81.71 K	167.9 J/K/mol	–
81.87 K	168.2 J/K/mol	–
81.93 K	–	172.6 J/K/mol
83.39 K	170.3 J/K/mol	–
83.49 K	–	175 J/K/mol
83.65 K	170.6 J/K/mol	–
83.69 K	–	175.5 J/K/mol
84.09 K	171.2 J/K/mol	–
85.19 K	172.7 J/K/mol	–
85.45 K	173.2 J/K/mol	–
85.46 K	–	178.2 J/K/mol
87 K	175.2 J/K/mol	–
87.24 K	–	181 J/K/mol
87.26 K	175.7 J/K/mol	–
88.81 K	177.8 J/K/mol	–
89.03 K	–	183.9 J/K/mol
89.08 K	178.2 J/K/mol	–
90 K	179.5 J/K/mol	185.3 J/K/mol
90.64 K	180.3 J/K/mol	–
90.83 K	–	186.6 J/K/mol
90.9 K	180.7 J/K/mol	–
92.07 K	–	188.5 J/K/mol
92.47 K	182.7 J/K/mol	–
92.64 K	–	189.3 J/K/mol
92.74 K	183.1 J/K/mol	–
93.91 K	–	191.2 J/K/mol
94.31 K	185.2 J/K/mol	–
94.58 K	185.6 J/K/mol	–
95.76 K	–	193.9 J/K/mol
96.17 K	187.6 J/K/mol	–
96.43 K	187.9 J/K/mol	–
97.6 K	–	196.8 J/K/mol
98.02 K	190.1 J/K/mol	–
98.29 K	190.4 J/K/mol	–
99.45 K	–	199.4 J/K/mol
99.89 K	192.4 J/K/mol	–
100 K	192.5 J/K/mol	200.2 J/K/mol
100.16 K	192.7 J/K/mol	–
101.31 K	–	202.1 J/K/mol
101.76 K	194.8 J/K/mol	–
102.03 K	195.1 J/K/mol	–
103.16 K	–	204.8 J/K/mol
103.64 K	197.2 J/K/mol	–
103.91 K	197.5 J/K/mol	–
105.01 K	–	207.5 J/K/mol
105.53 K	199.4 J/K/mol	–
105.8 K	199.8 J/K/mol	–
106.87 K	–	210.2 J/K/mol
107.42 K	201.7 J/K/mol	–
107.69 K	202.1 J/K/mol	–
108.73 K	–	212.9 J/K/mol
109.32 K	204.1 J/K/mol	–
109.58 K	204.4 J/K/mol	–
110 K	204.9 J/K/mol	214.7 J/K/mol
110.6 K	–	215.5 J/K/mol
111.22 K	206.4 J/K/mol	–
111.49 K	206.7 J/K/mol	–
112.46 K	–	218.2 J/K/mol
113.12 K	208.7 J/K/mol	–
113.39 K	209 J/K/mol	–
114.33 K	–	220.8 J/K/mol
115.03 K	210.9 J/K/mol	–
115.3 K	211.2 J/K/mol	–
116.2 K	–	223.4 J/K/mol
116.94 K	213.1 J/K/mol	–
117.21 K	213.4 J/K/mol	–
118.07 K	–	226.1 J/K/mol
118.86 K	215.4 J/K/mol	–
119.13 K	215.7 J/K/mol	–
119.94 K	–	228.8 J/K/mol
120 K	216.7 J/K/mol	229 J/K/mol
120.78 K	217.6 J/K/mol	–
121.05 K	218 J/K/mol	–
121.81 K	–	231.5 J/K/mol
122.7 K	219.9 J/K/mol	–
122.97 K	220.2 J/K/mol	–
123.69 K	–	234.2 J/K/mol
124.63 K	222.1 J/K/mol	–
124.9 K	222.4 J/K/mol	–
125.57 K	–	237 J/K/mol
126.55 K	224.3 J/K/mol	–
126.83 K	224.6 J/K/mol	–
127.44 K	–	239.7 J/K/mol
128.49 K	226.5 J/K/mol	–
128.76 K	226.8 J/K/mol	–
129.32 K	–	242.4 J/K/mol
130 K	228.2 J/K/mol	243.4 J/K/mol
130.42 K	228.7 J/K/mol	–
130.69 K	229 J/K/mol	–
131.2 K	–	245.1 J/K/mol
132.35 K	230.9 J/K/mol	–
132.62 K	231.1 J/K/mol	–
133.08 K	–	248 J/K/mol
134.29 K	233.1 J/K/mol	–
134.56 K	233.4 J/K/mol	–
134.97 K	–	250.8 J/K/mol
136.23 K	235.3 J/K/mol	–
136.5 K	235.6 J/K/mol	–
136.86 K	–	253.6 J/K/mol
138.16 K	237.5 J/K/mol	–
138.44 K	237.8 J/K/mol	–
138.74 K	–	256.4 J/K/mol
140 K	239.7 J/K/mol	258.2 J/K/mol
140.11 K	239.7 J/K/mol	–
140.38 K	240 J/K/mol	–
140.63 K	–	259.2 J/K/mol
142.05 K	242 J/K/mol	–
142.32 K	242.3 J/K/mol	–
142.52 K	–	262 J/K/mol
143.99 K	244.3 J/K/mol	–
144.26 K	244.6 J/K/mol	–
144.42 K	–	264.9 J/K/mol
145.93 K	246.5 J/K/mol	–
146.2 K	246.8 J/K/mol	–
146.31 K	–	267.8 J/K/mol
147.87 K	248.8 J/K/mol	–
148.14 K	249 J/K/mol	–
